Experimental data published in patent US9283222B2 (priority 2006, dated 2016).

Biological target: Recombinant Human Poly(ADP-Ribose) Polymerase (PARP), PARP-1 (Homo sapiens (Human), UniProt P09874)
Conditions: read-out: PARP-1 (Ki); Table 1; text calls the values EC50s

Recombinant Human Poly(ADP-Ribose) Polymerase (PARP), PARP-1, sequence (P09874 whole entry): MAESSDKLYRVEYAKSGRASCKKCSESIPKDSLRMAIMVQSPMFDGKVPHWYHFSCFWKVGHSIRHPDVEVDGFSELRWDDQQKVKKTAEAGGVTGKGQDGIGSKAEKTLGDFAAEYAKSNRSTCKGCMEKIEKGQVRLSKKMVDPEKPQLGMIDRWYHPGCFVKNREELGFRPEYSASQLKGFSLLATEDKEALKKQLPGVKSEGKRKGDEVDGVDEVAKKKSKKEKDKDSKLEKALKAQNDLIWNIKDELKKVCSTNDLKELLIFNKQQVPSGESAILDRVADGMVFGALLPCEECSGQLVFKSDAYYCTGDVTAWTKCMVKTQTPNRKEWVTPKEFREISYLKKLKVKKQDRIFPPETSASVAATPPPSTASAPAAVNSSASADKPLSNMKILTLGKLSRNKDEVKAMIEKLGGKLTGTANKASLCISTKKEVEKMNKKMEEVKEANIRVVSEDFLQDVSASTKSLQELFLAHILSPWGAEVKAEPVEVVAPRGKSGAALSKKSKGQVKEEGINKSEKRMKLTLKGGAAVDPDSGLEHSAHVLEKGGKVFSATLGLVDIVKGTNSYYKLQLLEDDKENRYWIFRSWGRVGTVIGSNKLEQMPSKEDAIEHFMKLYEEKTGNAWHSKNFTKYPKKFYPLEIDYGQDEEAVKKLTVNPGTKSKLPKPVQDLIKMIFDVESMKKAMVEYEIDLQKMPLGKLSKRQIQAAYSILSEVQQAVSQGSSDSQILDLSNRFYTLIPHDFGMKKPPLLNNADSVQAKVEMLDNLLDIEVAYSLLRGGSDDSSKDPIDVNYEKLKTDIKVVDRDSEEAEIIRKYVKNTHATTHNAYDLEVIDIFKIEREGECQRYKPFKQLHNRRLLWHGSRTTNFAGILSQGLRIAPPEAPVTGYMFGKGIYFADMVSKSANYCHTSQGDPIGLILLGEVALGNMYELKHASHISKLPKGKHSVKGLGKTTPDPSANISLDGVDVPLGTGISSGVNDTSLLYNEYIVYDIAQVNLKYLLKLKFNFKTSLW

Ki [nM]	SMILES
13	O=C(NCCN1CCCC1)c1cccc(Cc2n[nH]c(=O)c3c2CCCC3)c1 [Example 52, 3-((4-oxo-3,4,5,6,7,8-hexahydrophthalazin-1-yl)methyl)-N-(2-pyrrolidin-1-ylethyl)benzamide]
10	CC1CCCN1C(=O)c1cccc(Cc2n[nH]c(=O)c3c2CCCC3)c1 (stereo not shown) [Example 53, 4-(3-((2-methylpyrrolidin-1-yl)carbonyl)benzyl)-5,6,7,8-tetrahydrophthalazin-1(2H)-one]
205	O=C(NN1CCCCCC1)c1cccc(Cc2n[nH]c(=O)c3c2CCCC3)c1 [Example 54, N-azepan-1-yl-3-((4-oxo-3,4,5,6,7,8-hexahydrophthalazin-1-yl)methyl)benzamide]
5	O=C(NC1CNC1)c1cccc(Cc2n[nH]c(=O)c3c2CCCC3)c1 [Example 56, N-azetidin-3-yl-3-((4-oxo-3,4,5,6,7,8-hexahydrophthalazin-1-yl)methyl)benzamide]
60	O=C(NC1CCCNC1)c1cccc(Cc2n[nH]c(=O)c3c2CCCC3)c1 (stereo not shown) [Example 57, 3-((4-oxo-3,4,5,6,7,8-hexahydrophthalazin-1-yl)methyl)-N-piperidin-3-ylbenzamide]
51	CN(C)c1ccc(NC(=O)c2cccc(Cc3n[nH]c(=O)c4c3CCCC4)c2)cc1 [Example 58, N-(4-(dimethylamino)phenyl)-3-((4-oxo-3,4,5,6,7,8-hexahydrophthalazin-1-yl)methyl)benzamide]
3	O=C(c1cccc(Cc2n[nH]c(=O)c3c2CCCC3)c1)N1CCN(C(=O)c2ccno2)CC1 [Example 60, 4-(3-((4-(isoxazol-5-ylcarbonyl)piperazin-1-yl)carbonyl)benzyl)-5,6,7,8-tetrahydrophthalazin-1(2H)-one]
6	O=C(c1cccc(Cc2n[nH]c(=O)c3c2CCCC3)c1)N1CCC(c2ccccc2)CC1 [Example 61, 4-(3-((4-phenylpiperidin-1-yl)carbonyl)benzyl)-5,6,7,8-tetrahydrophthalazin-1(2H)-one]
42	O=C(NCC1CCCCN1)c1cccc(Cc2n[nH]c(=O)c3c2CCCC3)c1 (stereo not shown) [Example 62, 3-((4-oxo-3,4,5,6,7,8-hexahydrophthalazin-1-yl)methyl)-N-(piperidin-2-ylmethyl)benzamide]
23	O=C(NCC1CCNCC1)c1cccc(Cc2n[nH]c(=O)c3c2CCCC3)c1 [Example 63, 3-((4-oxo-3,4,5,6,7,8-hexahydrophthalazin-1-yl)methyl)-N-(piperidin-4-ylmethyl)benzamide]
40	O=C(NCCN1CCCCC1)c1cccc(Cc2n[nH]c(=O)c3c2CCCC3)c1 [Example 64, 3-((4-oxo-3,4,5,6,7,8-hexahydrophthalazin-1-yl)methyl)-N-(2-piperidin-1-ylethyl)benzamide]
82	CN1CC(NC(=O)c2cccc(Cc3n[nH]c(=O)c4c3CCCC4)c2)C1 [Example 65, N-(1-methylazetidin-3-yl)-3-((4-oxo-3,4,5,6,7,8-hexahydrophthalazin-1-yl)methyl)benzamide]
50	CNC(=O)c1cc(Cc2n[nH]c(=O)c3c2CCCC3)ccn1 [Example 67, N-methyl-4-((4-oxo-3,4,5,6,7,8-hexahydrophthalazin-1-yl)methyl)pyridine-2-carboxamide]
40	CS(=O)(=O)c1nccc(Cc2n[nH]c(=O)c3c2CCCC3)n1 [Example 69, 4-((2-(methylsulfonyl)pyrimidin-4-yl)methyl)-5,6,7,8-tetrahydrophthalazin-1(2H)-one]
101	C[S+]([O-])c1nccc(Cc2n[nH]c(=O)c3c2CCCC3)n1 (stereo not shown) [Example 70, 4-((2-(methylsulfinyl)pyrimidin-4-yl)methyl)-5,6,7,8-tetrahydrophthalazin-1(2H)-one]
56	CCNC(=O)c1cc(Cc2n[nH]c(=O)c3c2CCCC3)ccn1 [Example 75, N-ethyl-4-((4-oxo-3,4,5,6,7,8-hexahydrophthalazin-1-yl)methyl)pyridine-2-carboxamide]
473	CC(C)NC(=O)c1cc(Cc2n[nH]c(=O)c3c2CCCC3)ccn1 [Example 76, N-isopropyl-4-((4-oxo-3,4,5,6,7,8-hexahydrophthalazin-1-yl)methyl)pyridine-2-carboxamide]
195	O=C(NC1CCCCC1)c1cc(Cc2n[nH]c(=O)c3c2CCCC3)ccn1 [Example 77, N-cyclohexyl-4-((4-oxo-3,4,5,6,7,8-hexahydrophthalazin-1-yl)methyl)pyridine-2-carboxamide]
165	CN(CC1CCCCN1C)C(=O)c1cccc(Cc2n[nH]c(=O)c3c2CCCC3)c1 (stereo not shown) [Example 78, N-methyl-N-((1-methylpiperidin-2-yl)methyl)-3-((4-oxo-3,4,5,6,7,8-hexahydrophthalazin-1-yl)methyl)benzamide]
18	CN1CCC(CNC(=O)c2cccc(Cc3n[nH]c(=O)c4c3CCCC4)c2)CC1 [Example 79, N-((1-methylpiperidin-4-yl)methyl)-3-((4-oxo-3,4,5,6,7,8-hexahydrophthalazin-1-yl)methyl)benzamide]
47	CNC(=O)c1cccc(Cc2n[nH]c(=O)c3c2CCCC3)n1 [Example 80, N-methyl-6-((4-oxo-3,4,5,6,7,8-hexahydrophthalazin-1-yl)methyl)pyridine-2-carboxamide]
123	CCNC(=O)c1cccc(Cc2n[nH]c(=O)c3c2CCCC3)n1 [Example 81, N-ethyl-6-((4-oxo-3,4,5,6,7,8-hexahydrophthalazin-1-yl)methyl)pyridine-2-carboxamide]
691	CC(C)NC(=O)c1cccc(Cc2n[nH]c(=O)c3c2CCCC3)n1 [Example 82, N-isopropyl-6-((4-oxo-3,4,5,6,7,8-hexahydrophthalazin-1-yl)methyl)pyridine-2-carboxamide]
126	O=C(NC1CC1)c1cccc(Cc2n[nH]c(=O)c3c2CCCC3)n1 [Example 83, N-cyclopropyl-6-((4-oxo-3,4,5,6,7,8-hexahydrophthalazin-1-yl)methyl)pyridine-2-carboxamide]
617	O=C(NC1CCCCC1)c1cccc(Cc2n[nH]c(=O)c3c2CCCC3)n1 [Example 84, N-cyclohexyl-6-((4-oxo-3,4,5,6,7,8-hexahydrophthalazin-1-yl)methyl)pyridine-2-carboxamide]
396	COC(=O)c1ncccc1Cc1n[nH]c(=O)c2c1CCCC2 [Example 85, methyl 3-((4-oxo-3,4,5,6,7,8-hexahydrophthalazin-1-yl)methyl)pyridine-2-carboxylate]
390	COC(=O)c1ccc(Cc2n[nH]c(=O)c3c2CCCC3)cn1 [Example 86, methyl 5-((4-oxo-3,4,5,6,7,8-hexahydrophthalazin-1-yl)methyl)pyridine-2-carboxylate]
111	Nc1cccc(Cc2n[nH]c(=O)c3c2CCCC3)c1 [Example 89, 4-(3-aminobenzyl)-5,6,7,8-tetrahydrophthalazin-1(2H)-one]

SMILES	Ki [nM]
CN1CCN(CCNC(=O)c2cccc(Cc3n[nH]c(=O)c4c3CCCC4)c2)CC1 [Example 59, N-(2-(4-methylpiperazin-1-yl)ethyl)-3-((4-oxo-3,4,5,6,7,8-hexahydrophthalazin-1-yl)methyl)benzamide]	24

Same assay, conditions: read-out: PARP-1 (Ki); Table 2; A2 is C1-alkyl versus no A2 (bond)

Ki [nM]	SMILES
291	O=C1CCN1c1cc(-c2n[nH]c(=O)c3c2CCCC3)ccc1F

Same assay, conditions: read-out: PARP-1 (Ki); Table 3; H analogs versus para-F analogs

Ki [nM]	SMILES
27	CCN(CC)C(=O)C1CCCN(C(=O)c2cccc(Cc3n[nH]c(=O)c4c3CCCC4)c2)C1 (stereo not shown)
